The target of data set [1] is T1, RecAPa*-induced FlAsH-LexAPa CTD autoproteolysis (Pseudomonas aeruginosa, UniProt P37452).
T1 construct: 6His-SUMO (N, cleaved yes); made in house; host or cells: E. coli BL21(DE3)
In words: FP-based RecA*-induced LexA autoproteolysis in vitro assay. Format: biochemical, P. aeruginosa. The protocol:
A custom-made library of 318 small molecules (MW < 1000 Da) has been screened at two different concentrations (25 μg/mL and 125 μg/mL, corresponding to molar concentrations of 30–170 μM and 150–850 μM, respectively) on the P. aeruginosa SOS system by a previously validated fluorescence polμarization (FP)-based RecA*-induced LexA autoproteolysis in vitro assay. , 1 μM FlAsH-LexAPa ^CTD and 1 μM preactivated RecA*Pa were incubated with the screened chemical fragments for 1 h at 37 °C before measuring FP.
Then, the FP-based LexA autoproteolysis assay was repeated on the two hits, monitoring the full kinetics of LexA cleavage over a 1 h incubation and exploring a wide range of drug concentrations (10–1000 μM).
A custom-made library of 318 chemical fragments (25 mg/mL stock solutions in DMSO), provided by P. Kavaliauskas (Weill Cornell Medicine of Cornell University) was screened in vitro for their ability to inhibit RecAPa*-mediated LexAPa autoproteolysis by a Fluorescence Polarization (FP)-based assay. , Twenty microliter reactions were set up in Nunc 384-Well Black microplates, and final reaction mixtures included 1 μM FlAsH-LexAPa ^CTD, the compounds (5% v/v DMSO in all the samples, including the controls devoid of compounds), and 1 μM RecAPa* (FP Buffer in the negative control; 30 mM Hepes, 150 mM NaCl, pH 7.1). The initial screening was performed with two dilutions of the compounds (25 and 125 μg/mL). The FP signal was measured after a 1 h incubation at 37 °C by an EnVision MultiMode Plate Reader (PerkinElmer) equipped with opportune FP filters and mirrors. To obtain LexAPa ^CTD autoproteolysis percent inhibition, FP data were scaled from 0% (corresponding to the positive control sample) to 100% (negative control).
Compounds displaying an inhibition of at least 50% at the highest concentration and a rather consistent increase in activity at the two tested concentrations were selected as the hits.
The same FP assay was carried out on serial dilutions of selected compounds to determine the dose–response relationship. To evaluate the effect of a reducing environment, 2 mM Tris(2-carboxyethyl)-phosphine (TCEP) was added to the reaction mixtures. The FP signal of FlAsH-LexAPa ^CTD alone was detected for 5 min before adding the compounds. The system was monitored for an additional 5 min in the presence of the tested compounds in order to observe potential aggregation events. Then, RecAPa* was added, and the autoproteolysis reaction was followed for 1 h at 37 °C (1 reading per minute). FlAsH-LexAPa ^CTD autoproteolysis percent inhibition was calculated as mentioned above and plotted as a function of compound concentration. Experimental data fitting was performed with GraphPad Prism 8 to obtain the absolute IC50.

Data set [2] in a line: Solubility in aqueous buffers. The note with it: aqueous buffer, read-out: Solubility in aqueous buffers, concentration above which it strongly worsened. The data set is classed as physicochemical.

Molecules are shown by their SMILES. Values after ≈ are worked out from the molar mass of the structure shown.

T1 sequence (P37452 81-204): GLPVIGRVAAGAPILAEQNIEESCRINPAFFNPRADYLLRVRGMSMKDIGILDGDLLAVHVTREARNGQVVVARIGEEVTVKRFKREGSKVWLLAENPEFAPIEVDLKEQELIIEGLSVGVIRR

The IC50 is the concentration that inhibits the measured activity by half. Broadly, the inhibition is the change of the read-out against control, counted positive when it falls. Consider `O=C(O)CCNc1ccccc1S` [A12, 3-(2-sulfanylanilino)propanoic acid], for which the IC50 in data set [1] (1 μM FlAsH-LexAPa CTD, 1 μM RecAPa*, 1 h at 37 °C, read-out: IC50 on RecA*Pa-induced LexAPa autoproteolysis (FP assay)) amounted to 295 ± 12 µM. In data set [1] (2 mM TCEP), the “A12 inhibitory activity under reducing conditions compared to nonreducing” value is on record as “significantly diminished”. In addition, in data set [1] (compound at 125 μg/mL, 1 h at 37 °C, read-out: LexA autoproteolysis inhibition in initial library screening), the inhibition at 125 µg/mL is above 50%. Further, in data set [2], the solubility is around 500 µM (≈ 98.6 µg/mL).

For the origin of these results see paper PMC12706794, “Identification and Characterization of a Small-Molecule Inhibitor of the Pseudomonas aeruginosa SOS Response” (ACS Infectious Diseases, 2025).
